Counter-ions that a name gives are not always drawn.
Legend:
[1] = molecular target: T1, Furin (108-574-Tev-Flag-His) enzyme (Homo sapiens, UniProt P09958); test: Furin enzyme assay; assay type: biochemical; conditions: for IC50: read-out: furin enzyme pIC50 (converted)
T1 construct: Furin (108-574-Tev-Flag-His) enzyme was expressed and purified from CHO cells; TEV cleavage site (C); FLAG (C); His (C); made in house; host or cells: CHO cells
Procedure, shortened: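 CHO-expressed, purified furin construct at 40 pM in 100 mM HEPES pH7.5, 1 mM CaCl2, 0.005% Triton X-100. Eleven-point 1:3 series, 0.00017–10 μM final, incubated 2 h at room temperature and read on Envision. pXC50 from four-parameter fit.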

[2] = molecular target: T2, furin (endogenous protease) in U20S cells (Homo sapiens, UniProt P09958); test: Furin cell-based assay (image-based, Golgi-targeted GFP with BMP10 furin/PCSK cleavage site); conditions: 24-hour incubation, read-out: furin golgi cell pXC50 (converted);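 also: Read-out is mean GFP fluorescence of Golgi puncta per cell by high-content imaging, retained when furin inhibited, over an eleven-point 0.00017–10 µM series, four-parameter fit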
T2 construct: the endogenous protease cleaves GFP; endogenous in cells; host or cells: U2OS cells transduced with a BacMam reporter
T2 sequence (P09958 108-794): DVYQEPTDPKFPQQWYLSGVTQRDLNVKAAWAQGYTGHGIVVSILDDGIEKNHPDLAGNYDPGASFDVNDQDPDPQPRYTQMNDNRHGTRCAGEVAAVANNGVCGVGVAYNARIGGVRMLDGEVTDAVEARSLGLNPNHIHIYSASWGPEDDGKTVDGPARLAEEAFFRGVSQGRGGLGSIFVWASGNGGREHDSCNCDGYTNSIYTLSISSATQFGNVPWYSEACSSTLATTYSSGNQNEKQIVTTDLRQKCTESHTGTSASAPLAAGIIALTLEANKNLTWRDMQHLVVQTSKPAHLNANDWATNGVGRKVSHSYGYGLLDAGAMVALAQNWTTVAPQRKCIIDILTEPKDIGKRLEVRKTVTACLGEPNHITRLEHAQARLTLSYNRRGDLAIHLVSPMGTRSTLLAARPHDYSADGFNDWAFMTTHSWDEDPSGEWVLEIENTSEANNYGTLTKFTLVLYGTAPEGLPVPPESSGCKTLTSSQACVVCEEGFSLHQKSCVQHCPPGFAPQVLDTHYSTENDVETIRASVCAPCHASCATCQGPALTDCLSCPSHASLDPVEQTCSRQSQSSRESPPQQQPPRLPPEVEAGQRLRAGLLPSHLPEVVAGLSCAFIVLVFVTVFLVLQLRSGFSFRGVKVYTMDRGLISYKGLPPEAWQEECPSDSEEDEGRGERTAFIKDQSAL

T1 sequence (P09958 108-574): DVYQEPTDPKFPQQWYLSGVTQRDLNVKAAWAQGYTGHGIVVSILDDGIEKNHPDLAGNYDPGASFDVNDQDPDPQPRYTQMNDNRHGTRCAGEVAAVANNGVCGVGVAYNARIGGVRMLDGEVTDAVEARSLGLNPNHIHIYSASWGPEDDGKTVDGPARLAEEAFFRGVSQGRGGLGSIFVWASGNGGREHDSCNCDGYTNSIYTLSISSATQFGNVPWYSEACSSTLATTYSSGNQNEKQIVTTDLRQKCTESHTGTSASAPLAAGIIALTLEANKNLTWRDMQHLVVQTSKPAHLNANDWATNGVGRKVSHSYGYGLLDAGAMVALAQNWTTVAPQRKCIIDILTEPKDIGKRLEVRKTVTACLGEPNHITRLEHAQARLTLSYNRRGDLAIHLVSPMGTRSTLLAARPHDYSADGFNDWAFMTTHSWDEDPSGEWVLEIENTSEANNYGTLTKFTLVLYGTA

| Compound | furin enzyme pIC50 [1] | EC50 [2] [nM] | IC50 [1] [nM] |
| --- | --- | --- | --- |
| CC(CCN1CCN(c2ncc(Oc3cc(CN4CCC(CCO)CC4)cc(-c4cc(Cl)cc(Cl)c4)n3)cn2)CC1)C(=O)O (stereo not drawn) [Example 57, 4-(4-(5-((6-(3,5-dichlorophenyl)-4-((4-(2-hydroxyethyl)piperidin-1-yl)methyl)pyridin-2-yl)oxy)pyrimidin-2-yl)piperazin-1-yl)-2-methylbutanoic acid] | 10.3 | 10 |  |
| O=C(O)CCN1CCN(c2ccc(Oc3cc(CN4CCC(CNC(=O)C5CC5)CC4)cc(-c4cc(Cl)cc(Cl)c4)n3)cn2)CC1 [Example 58, 3-(4-(5-((4-((4-(cyclopropanecarboxamidomethyl)piperidin-1-yl)methyl)-6-(3,5-dichlorophenyl)pyridin-2-yl)oxy)pyridin-2-yl)piperazin-1-yl)propanoic acid] | 9.2 | 15.8 |  |
| CCC(=O)NCC1CCN(Cc2cc(Oc3cnc(N4CCN(CCC(C)C(=O)O)CC4)nc3)nc(-c3cc(Cl)cc(Cl)c3)c2)CC1 (stereo not drawn) [Example 59, 4-(4-(5-((6-(3,5-dichlorophenyl)-4-((4-(propionamidomethyl)piperidin-1-yl)methyl)pyridin-2-yl)oxy)pyrimidin-2-yl)piperazin-1-yl)-2-methylbutanoic acid] | 8.9 | 6.31 |  |
| CC(O)CCN1CCN(c2ncc(Oc3cc(CN4CCC(F)CC4)cc(-c4cc(Cl)cc(Cl)c4)n3)cn2)CC1 (stereo not drawn) [Example 60, 4-(4-(5-((6-(3,5-dichlorophenyl)-4-((4-fluoropiperidin-1-yl)methyl)pyridin-2-yl)oxy)pyrimidin-2-yl)piperazin-1-yl)butan-2-ol] | 7.6 | 15.8 |  |
| CC(=O)NCC1CCN(Cc2cc(Oc3cnc(N4CCN(CCC(=O)O)CC4)nc3)nc(-c3cc(Cl)cc(C(F)F)c3)c2)CC1 [Example 61, 3-(4-(5-((4-((4-(acetamidomethyl)piperidin-1-yl)methyl)-6-(3-chloro-5-(difluoromethyl)phenyl)pyridin-2-yl)oxy)pyrimidin-2-yl)piperazin-1-yl)propanoic acid] | 9.2 | 158 |  |
| COC(=O)NCC1CCN(Cc2cc(Oc3cnc(N4CCN(C)CC4)nc3)nc(-c3cc(Cl)cc(Cl)c3)c2)CC1 [Example 63, Methyl ((1-1(2-(3,5-dichlorophenyl)-6-((2-(4-methylpiperazin-1-yl)pyrimidin-5-yl)oxy)pyridin-4-yl)methyl)piperidin-4-yl)methyl)carbamate, 4 hydrochloride] | 10.8 | 7.94 |  |
| CC(=O)NCC1CCN(Cc2cc(Oc3cnc(N4CCN(C)CC4)nc3)nc(-c3cc(Cl)cc(Cl)c3)c2)CC1 [Example 64, N-((1-((2-(3,5-dichlorophenyl)-6-((2-(4-methylpiperazin-1-yl)pyrimidin-5-yl)oxy)pyridin-4-yl)methyl)piperidin-4-yl)methyl)acetamide] | 9.1 | 10 |  |
| COC(=O)NCC1CCN(Cc2cc(Oc3ccc(N4CCN(C)CC4)nc3)nc(-c3cc(Cl)cc(Cl)c3)c2)CC1 [Example 65, methyl ((1-((2-(3,5-dichlorophenyl)-6-((6-(4-methylpiperazin-1-yl)pyridin-3-yl)oxy)pyridin-4-yl)methyl)piperidin-4-yl)methyl)carbamate] | 8.7 | 20 |  |
| CNC(=O)OCC1CCN(Cc2cc(Oc3cnc(N4CCN(C)CC4)nc3)nc(-c3cc(Cl)cc(Cl)c3)c2)CC1 [Example 66, (1-((2-(3,5-dichlorophenyl)-6-((2-(4-methylpiperazin-1-yl)pyrimidin-5-yl)oxy)pyridin-4-yl)methyl)piperidin-4-yl)methyl methylcarbamate] |  | 7.94 | 1.58 |
| CNC(=O)OCC1CCN(Cc2cc(Oc3ccc(N4CCN(C)CC4)nc3)nc(-c3cc(Cl)cc(Cl)c3)c2)CC1 [Example 67, (1-((2-(3,5-dichlorophenyl)-6-((6-(4-methylpiperazin-1-yl)pyridin-3-yl)oxy)pyridin-4-yl)methyl)piperidin-4-yl)methyl methylcarbamate] | 10.4 | 12.6 |  |
| CC(=O)NCC1CCN(Cc2cc(Oc3cnc(N4CCN(C)CC4)nc3)cc(-c3cc(Cl)cc(Cl)c3)c2)CC1 [Example 68, N-((1-((3′,5′-dichloro-5-((2-(4-methylpiperazin-1-yl)pyrimidin-5-yl)oxy)-[1,1′-biphenyl]-3-yl)methyl)piperidin-4-yl)methyl)acetamide] | 9.6 | 12.6 |  |
| CNC(=O)NCC1CCN(Cc2cc(Oc3ccc(N4CCN(C)CC4)nc3)nc(-c3cc(Cl)cc(Cl)c3)c2)CC1 [Example 69, 1-((1-((2-(3,5-dichlorophenyl)-6-((6-(4-methylpiperazin-1-yl)pyridin-3-yl)oxy)pyridin-4-yl)methyl)piperidin-4-yl)methyl)-3-methylurea] | 9.1 | 5.01 |  |
| CNC(=O)NCC1CCN(Cc2cc(Oc3cnc(N4CCN(C)CC4)nc3)nc(-c3cc(Cl)cc(Cl)c3)c2)CC1 [Example 70, 1-((1-((2-(3,5-dichlorophenyl)-6-((2-(4-methylpiperazin-1-yl)pyrimidin-5-yl)oxy)pyridin-4-yl)methyl)piperidin-4-yl)methyl)-3-methylurea] |  | 3.98 | 0.0316 |
| CC(=O)NCC1CCN(Cc2cc(Oc3cnc(N4CC5CCC(C4)N5C)nc3)nc(-c3cc(Cl)cc(Cl)c3)c2)CC1 [Example 71, N-((1-((2-(3,5-dichlorophenyl)-6-((2-(8-methyl-3,8-diazabicyclo[3.2.1]octan-3-yl)pyrimidin-5-yl)oxy)pyridin-4-yl)methyl)piperidin-4-yl)methyl)acetamide] |  | 1.58 | 0.2 |
| CN1CCN(c2ncc(Oc3cc(CN4CCC(Cc5nnn[nH]5)CC4)cc(-c4cc(Cl)cc(Cl)c4)n3)cn2)CC1 [Example 72, 5-((4-((4-((1H-tetrazol-5-yl)methyl)piperidin-1-yl)methyl)-6-(3,5-dichlorophenyl)pyridin-2-yl)oxy)-2-(4-methylpiperazin-1-yl)pyrimidine] | 8.8 | 10 |  |
| CNC(=O)OCC1CCN(Cc2cc(Oc3cnc(N4CCNCC4)nc3)nc(-c3cc(Cl)cc(Cl)c3)c2)CC1 [Example 73, (1-((2-(3,5-Dichlorophenyl)-6-((2-(piperazin-1-yl)pyrimidin-5-yl)oxy)pyridin-4-yl)methyl)piperidin-4-yl)methyl methylcarbamate] | 8.9 | 6.31 |  |
| CNC(=O)OCC1CCN(Cc2cc(Oc3ccc(N4CCNCC4)nc3)nc(-c3cc(Cl)cc(Cl)c3)c2)CC1 [Example 74, (1-((2-(3,5-Dichlorophenyl)-6-((6-(piperazin-1-yl)pyridin-3-yl)oxy)pyridin-4-yl)methyl)piperidin-4-yl)methyl methylcarbamate, 4 hydrochloride] | 8.4 | 6.31 |  |
| CNC(=O)NCC1CCN(Cc2cc(Oc3cnc(N4CCNCC4)nc3)nc(-c3cc(Cl)cc(Cl)c3)c2)CC1 [Example 75, 1-((1-((2-(3,5-Dichlorophenyl)-6-((2-(piperazin-1-yl)pyrimidin-5-yl)oxy)pyridin-4-yl)methyl)piperidin-4-yl)methyl)-3-methylurea, 4 hydrochloride] | 9.1 | 3.16 |  |
